{"source": "patent US20090247576A1", "about": "“ANTI-TUMOR AGENT FOR MULTIPLE MYELOMA” (Eisai R & D Management Co., Ltd., priority 2005, published 2009)", "molecular_target": "T1, FGFR3 kinase (human recombinant GST fusion protein) (Homo sapiens, UniProt P22607)", "T1 construct": "GST; host or cells: Sf9 insect cells, baculovirus", "T1 sequence (P22607 23-806)": "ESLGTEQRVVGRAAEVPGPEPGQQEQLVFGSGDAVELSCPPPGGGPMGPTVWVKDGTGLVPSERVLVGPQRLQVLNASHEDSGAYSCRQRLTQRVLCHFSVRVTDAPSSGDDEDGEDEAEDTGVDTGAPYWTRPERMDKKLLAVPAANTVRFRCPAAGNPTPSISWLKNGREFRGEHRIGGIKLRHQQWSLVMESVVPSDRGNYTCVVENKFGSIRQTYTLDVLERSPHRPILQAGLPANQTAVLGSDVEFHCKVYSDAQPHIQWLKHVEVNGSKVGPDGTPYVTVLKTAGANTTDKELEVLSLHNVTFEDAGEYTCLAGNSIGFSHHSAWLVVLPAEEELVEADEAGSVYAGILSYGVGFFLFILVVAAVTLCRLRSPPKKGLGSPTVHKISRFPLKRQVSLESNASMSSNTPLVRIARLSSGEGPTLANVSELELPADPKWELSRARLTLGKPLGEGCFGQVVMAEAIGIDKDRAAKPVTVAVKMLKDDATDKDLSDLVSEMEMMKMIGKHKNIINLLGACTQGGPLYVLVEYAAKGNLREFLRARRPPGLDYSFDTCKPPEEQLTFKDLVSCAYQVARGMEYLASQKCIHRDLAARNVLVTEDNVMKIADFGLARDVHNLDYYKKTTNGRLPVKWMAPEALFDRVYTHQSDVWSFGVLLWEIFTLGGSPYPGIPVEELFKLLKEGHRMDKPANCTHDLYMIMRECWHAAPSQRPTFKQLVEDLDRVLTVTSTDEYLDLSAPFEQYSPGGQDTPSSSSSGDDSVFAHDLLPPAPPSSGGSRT", "experiment": "FGFR3 cell free kinase assay (33P-ATP incorporation, FlashPlate, ProQinase)", "assay_type": "biochemical", "details": "test substance: methanesulfonate; 1 μM [γ-33P]-ATP; substrate biotinylated Poly(Glu, Tyr)4:1; 30° C., 80 minutes; 10 points from 10 μM to 0.0003 μM; read-out: FGFR3 kinase-inhibiting activity (IC50)", "protocol": "A FGFR3-inhibiting activity of 4-(3-chloro-4-(cyclopropylaminocarbonyl)aminophenoxy)-7-methoxy-6-quinolinecarbox amide was examined by ProQinase (Freiburg, GmbH) on our request. Specifically, the FGFR3-inhibiting activity was determined as follows. FGFR3 kinase was expressed in an insect cell (Spondoptea frugiperda 9 (Sf9)) as human recombinant GST fusion protein by the method of Baculovirus Expression System. The expressed recombinant protein was purified by affinity chromatography using GSH-agarose (from Sigma) or Ni-NTH-agarose (from Qiagen). The purity and identification of the protein were confirmed by SDS-PAGE, silver staining and western blotting using an antibody specific to FGFR3 kinase. Kinase assay was carried out as follows. […] The amount of ^33Pi incorporation was assessed by determining the radioactivity on the plate with a microplate scintillation counter (from Microbeta, Wallac). […] The kinase activity in the presence of the test substance at each concentration was assessed as percentage of the value obtained by subtracting the 0% value from the radioactivity value to the value obtained by subtracting the 0% value from the 100% value.", "note": "pIC50: −log10 of the molar value.", "data": [{"compound": "COc1cc2nccc(Oc3ccc(NC(=O)NC4CC4)c(Cl)c3)c2cc1C(N)=O", "note": "[4-(3-chloro-4-(cyclopropylaminocarbonyl)aminophenoxy)-7-methoxy-6-quinolinecarbox amide]", "values": [{"measurement": "pIC50", "result": 6.85}]}]}
